# What was measured:
# [1] = test system: collagen-induced arthritis; experiment: Collagen-Induced Arthritis (CIA) Model; type: in vivo, female Lewis rats; settings: ten consecutive subcutaneous doses days 10-19; 500 nmol/kg induction, 100 nmol/kg maintenance
# Method: Collagen-Induced Arthritis (CIA) Model. The collagen-induced arthritis (CIA) was induced in female Lewis rats on folate-deficient diet (Harlan Teklad, Indianapolis, Ind.). On Day 0, rats were immunized with 500 μg of bovine collagen Type II (Chondrex, Redmond, Wash.) formulated with Freund's complete adjuvant. A booster immunization was given on Day 7 with 250 μg of the bovine collagen formulated with Freund's incomplete adjuvant. Arthritis disease was assessed by a qualitative clinical score system described by the manufacturer (Chondrex, Redmond, Wash.): 0=normal, 1=Mild, but definite redness and swelling of the ankle or wrist, or apparent redness and swelling limited to individual digits, regardless of the number of affected digits, 2=Moderate redness and swelling of ankle of wrist, 3=Severe redness and swelling of the entire paw including digits, and 4=Maximally inflamed limb with involvement of multiple joints. On Day 10 post first immunization, rats were distributed evenly (according to the arthritis score) across the control and treatment groups. The CIA rats were given ten consecutive subcutaneous doses of EC0746 and methotrexate on days 10-19. For both drugs, an induction dose (500 nmol/kg) was given on days 10 and 15 and a maintenance dose (100 nmol/kg) was given on days 11-14 and 16-19. […] The arthritis score and animal body weight were recorded five times a week.
# [2] = Plasma stability / drug release after dosing in rats; type: in vivo; settings: after a AC dose in rats
# From the text: EC1496 releases ca. 50% less drug than the comparative example EC0746 after a AC dose in rats.
# cells in culture = experiment: Cytotoxicity to cells in culture; type: cell-based; settings: read-out: typical IC50, cells in culture
# KB tumors = experiment: KB tumor assay in nu/nu mice; settings: for CR (%) / Cures (%) / PR (%) / Toxicity Avg. Weight Loss / Toxicity Deaths (%): TIW, 2 weeks
# Method: Inhibition of Tumor Growth in Mice. Four to seven week-old mice (Balb/c or nu/nu strains) were purchased from Harlan Sprague Dawley, Inc. (Indianapolis, Ind.). Normal rodent chow contains a high concentration of folic acid (6 mg/kg chow); accordingly, mice used were maintained on the folate-free diet (Harlan diet #TD00434) for 1 week before tumor implantation to achieve serum folate concentrations close to the range of normal human serum. For tumor cell inoculation, 1×10^6 M109 cells (Balb/c strain) or 1×10^6 KB cells (nu/nu strain) in 100 μL were injected in the subcutis of the dorsal medial area. Tumors were measured in two perpendicular directions every 2-3 days using a caliper, and their volumes were calculated as 0.5×L×W^2, where L=measurement of longest axis in mm and W=measurement of axis perpendicular to L in mm. […] Dosing solutions were prepared fresh each day in PBS and administered through the lateral tail vein of the mice.
# General KB Tumor Assay. The anti-tumor activity of the compounds described herein, when administered intravenously (i.v.) to tumor-bearing animals, was evaluated in nu/nu mice bearing subcutaneous KB tumors. Approximately 8 days post tumor inoculation in the subcutis of the right axilla with 1×10^6 KB cells (average tumor volume at to=50-100 mm^3), in mice (5/group) were injected i.v. three times a week (TIW), for 3 weeks with […] of the drug delivery conjugate or with an equivalent dose volume of PBS (control), unless otherwise indicated. Tumor growth was measured using calipers at 2-day or 3-day intervals in each treatment group. Tumor volumes were calculated using the equation V=a×b^2/2, where “a” is the length of the tumor and “b” is the width expressed in millimeters.
# Toxicity as Measured by Weight Loss. The percentage weight change of the mice was determined in mice (5 mice/group) on selected days post-tumor inoculation (PTI), and graphed.
# In vivo activity against tumors.
smiles,measurement,setting,value
CCCC(=O)OCN(C(=O)[C@@H](NC(=O)[C@H]1CCCCN1C)C(C)CC)[C@H](C[C@H](OC(C)=O)c1nc(C(=O)N[C@H](Cc2ccc(O)cc2)C[C@H](C)C(=O)NNC(=O)OCCSSC[C@H](NC(=O)[C@H](CCC(=O)NC[C@H](O)[C@@H](O)[C@H](O)[C@H](O)CO)NC(=O)[C@H](CCC(=O)O)NC(=O)[C@H](CCC(=O)NC[C@H](O)[C@@H](O)[C@H](O)[C@H](O)CO)NC(=O)[C@H](CCC(=O)O)NC(=O)[C@H](CCC(=O)NC[C@H](O)[C@@H](O)[C@H](O)[C@H](O)CO)NC(=O)CC[C@H](NC(=O)c2ccc(NCc3cnc4nc(N)[nH]c(=O)c4n3)cc2)C(=O)O)C(=O)O)cs1)C(C)C (stereo partly shown) [EC0746],effect on collagen-induced arthritis (arthritis score),[1],effective
N=c1[nH]c(N)nc2ncc(CNc3ccc(C(=O)N[C@@H](CCC(=O)NNC(=O)OCCSSC[C@@H](NC(=O)[C@H](CCC(=O)NC[C@H](O)[C@@H](O)[C@H](O)[C@H](O)CO)NC(=O)[C@@H](CCC(=O)O)NC(=O)[C@H](CCC(=O)NC[C@H](O)[C@@H](O)[C@H](O)[C@H](O)CO)NC(=O)[C@@H](CCC(=O)O)NC(=O)[C@H](CCC(=O)NC[C@H](O)[C@@H](O)[C@H](O)[C@H](O)CO)NC(=O)CC[C@@H](NC(=O)c4ccc(NCc5cnc6nc(N)[nH]c(=O)c6n5)cc4)C(=O)O)C(=O)O)C(=O)O)cc3)nc12 [EC1496],less drug released than comparative example EC0746,[2],ca. 50%
"CCCC(=O)OCN(C(=O)[C@@H](NC(=O)[C@H]1CCCCN1C)[C@@H](C)CC)[C@H](C[C@@H](OC(C)=O)c1nc(C(=O)N[C@@H](Cc2ccc(O)cc2)C[C@H](C)C(=O)O)cs1)C(C)C [Tubulysin B, tubulysin B]",IC50,cells in culture,~1 nM
same,CR (%),KB tumors; 0.1 μmol/kg (4 doses),0%
same,Cures (%),KB tumors; 0.1 μmol/kg (4 doses),0%
same,PR (%),KB tumors; 0.1 μmol/kg (4 doses),0%
same,Toxicity Avg. Weight Loss,KB tumors; 0.1 μmol/kg (4 doses),>20%
same,Toxicity Deaths (%),KB tumors; 0.1 μmol/kg (4 doses),100%
same,CR (%),KB tumors; 0.2 μmol/kg (3 doses),0%
same,Cures (%),KB tumors; 0.2 μmol/kg (3 doses),0%
same,PR (%),KB tumors; 0.2 μmol/kg (3 doses),0%
same,Toxicity Avg. Weight Loss,KB tumors; 0.2 μmol/kg (3 doses),>18%
same,Toxicity Deaths (%),KB tumors; 0.2 μmol/kg (3 doses),100%
same,CR (%),KB tumors; 0.5 μmol/kg (1 dose),0%
same,Cures (%),KB tumors; 0.5 μmol/kg (1 dose),0%
same,PR (%),KB tumors; 0.5 μmol/kg (1 dose),0%
same,Toxicity Avg. Weight Loss,KB tumors; 0.5 μmol/kg (1 dose),>15%
same,Toxicity Deaths (%),KB tumors; 0.5 μmol/kg (1 dose),100%
same,toxicity in relation to anti-tumor effect in mice,"KB tumors; mouse, in vivo",dose-limiting toxicities in mice at levels that did not produce measurable anti-tumor effect

# From patent US20140107316A1, “DRUG DELIVERY CONJUGATES CONTAINING UNNATURAL AMINO ACIDS AND METHODS FOR USING” (priority 2012, published 2014)
